Laboratory results taken from the NIST ThermoML archive (doi:10.1016/j.jct.2015.03.001).

Columns and labels:
[1] = refractive index (Na D-line) (dimensionless); xn = mol fraction of the nth substance listed; conditions: 99 kPa, Liquid, Abbe refractometer
[2] = relative permittivity at various frequencies (dimensionless); xn = mol fraction of the nth substance listed; conditions: 99 kPa, Liquid, Frequency=2 MHz, Parallel plate capacitor

CC(C)CCl [1-chloro-2-methylpropane] + CCCCCC
Conditions	refractive index, 283.15 K	refractive index, 298.15 K	refractive index, 313.15 K	relative permittivity, 283.15 K	relative permittivity, 298.15 K	relative permittivity, 313.15 K
[1], x2 = 0	1.40354	1.39529	1.38683	–	–	–
[1], x2 = 0.0484	1.40197	1.39371	1.38526	–	–	–
[1], x2 = 0.0984	1.40039	1.39212	1.38366	–	–	–
[1], x2 = 0.2052	1.39725	1.38895	1.38049	–	–	–
[1], x2 = 0.3044	1.39452	1.3862	1.37775	–	–	–
[1], x2 = 0.4034	1.39199	1.38367	1.37523	–	–	–
[1], x2 = 0.5052	1.38961	1.3813	1.37287	–	–	–
[1], x2 = 0.6134	1.38726	1.37897	1.37057	–	–	–
[1], x2 = 0.7019	1.38551	1.37722	1.36883	–	–	–
[1], x2 = 0.8082	1.38355	1.37526	1.3669	–	–	–
[1], x2 = 0.908	1.38189	1.3736	1.36525	–	–	–
[1], x2 = 0.9475	1.38129	1.37301	1.36468	–	–	–
[2], x2 = 0	–	–	–	7.472	7.074	6.657
[2], x2 = 0.0482	–	–	–	7.14	6.773	6.385
[2], x2 = 0.1006	–	–	–	6.784	6.442	6.082
[2], x2 = 0.1985	–	–	–	6.106	5.816	5.506
[2], x2 = 0.2966	–	–	–	5.432	5.191	4.929
[2], x2 = 0.3985	–	–	–	4.768	4.573	4.358
[2], x2 = 0.5036	–	–	–	4.142	3.991	3.82
[2], x2 = 0.5998	–	–	–	3.626	3.513	3.38
[2], x2 = 0.6993	–	–	–	3.149	3.064	2.966
[2], x2 = 0.8028	–	–	–	2.707	2.648	2.579
[2], x2 = 0.9002	–	–	–	2.315	2.278	2.232
[2], x2 = 0.9462	–	–	–	2.129	2.102	2.068

CC(C)CCl [1-chloro-2-methylpropane] + CCCCCCC
Conditions	refractive index, 283.15 K	refractive index, 298.15 K	refractive index, 313.15 K	relative permittivity, 283.15 K	relative permittivity, 298.15 K	relative permittivity, 313.15 K
[1], x2 = 0	1.40354	1.39529	1.38683	–	–	–
[1], x2 = 0.0485	1.40248	1.39425	1.38582	–	–	–
[1], x2 = 0.1009	1.40145	1.39325	1.38485	–	–	–
[1], x2 = 0.2046	1.39974	1.39161	1.38327	–	–	–
[1], x2 = 0.3065	1.3983	1.39022	1.38196	–	–	–
[1], x2 = 0.4028	1.39716	1.38914	1.38093	–	–	–
[1], x2 = 0.5039	1.3961	1.38814	1.37999	–	–	–
[1], x2 = 0.603	1.3952	1.38729	1.3792	–	–	–
[1], x2 = 0.7033	1.39445	1.3866	1.37858	–	–	–
[1], x2 = 0.8026	1.39381	1.38601	1.37804	–	–	–
[1], x2 = 0.9158	1.39326	1.38548	1.37758	–	–	–
[1], x2 = 0.9513	1.3931	1.38538	1.37749	–	–	–
[2], x2 = 0	–	–	–	7.472	7.074	6.657
[2], x2 = 0.0467	–	–	–	7.151	6.783	6.395
[2], x2 = 0.1011	–	–	–	6.755	6.418	6.062
[2], x2 = 0.197	–	–	–	6.042	5.749	5.45
[2], x2 = 0.297	–	–	–	5.32	5.08	4.828
[2], x2 = 0.4028	–	–	–	4.619	4.43	4.232
[2], x2 = 0.5045	–	–	–	4.028	3.88	3.725
[2], x2 = 0.6012	–	–	–	3.537	3.425	3.3
[2], x2 = 0.7002	–	–	–	3.094	3.012	2.918
[2], x2 = 0.801	–	–	–	2.697	2.636	2.568
[2], x2 = 0.9058	–	–	–	2.303	2.262	2.219
[2], x2 = 0.9473	–	–	–	2.147	2.114	2.081

CCCCCl [1-chlorobutane] + CCCCCC
Conditions	refractive index, 283.15 K	refractive index, 298.15 K	refractive index, 313.15 K	relative permittivity, 283.15 K	relative permittivity, 298.15 K	relative permittivity, 313.15 K
[1], x2 = 0	1.4075	1.3995	1.39131	–	–	–
[1], x2 = 0.0534	1.40565	1.39762	1.38941	–	–	–
[1], x2 = 0.1022	1.404	1.39595	1.38772	–	–	–
[1], x2 = 0.2056	1.40063	1.39253	1.38428	–	–	–
[1], x2 = 0.3039	1.39755	1.38941	1.38115	–	–	–
[1], x2 = 0.3985	1.39477	1.38661	1.37832	–	–	–
[1], x2 = 0.5023	1.39187	1.38367	1.37537	–	–	–
[1], x2 = 0.6042	1.38921	1.38099	1.37267	–	–	–
[1], x2 = 0.7026	1.38679	1.37855	1.37024	–	–	–
[1], x2 = 0.8041	1.38445	1.37621	1.36788	–	–	–
[1], x2 = 0.9082	1.38227	1.37401	1.3657	–	–	–
[1], x2 = 0.9471	1.3815	1.37324	1.36493	–	–	–
[2], x2 = 0	–	–	–	7.552	7.157	6.757
[2], x2 = 0.0476	–	–	–	7.176	6.821	6.456
[2], x2 = 0.0989	–	–	–	6.775	6.461	6.13
[2], x2 = 0.1968	–	–	–	6.057	5.8	5.526
[2], x2 = 0.3016	–	–	–	5.335	5.13	4.901
[2], x2 = 0.3968	–	–	–	4.722	4.553	4.37
[2], x2 = 0.5024	–	–	–	4.101	3.968	3.824
[2], x2 = 0.6034	–	–	–	3.567	3.458	3.348
[2], x2 = 0.6982	–	–	–	3.11	3.027	2.94
[2], x2 = 0.808	–	–	–	2.63	2.567	2.506
[2], x2 = 0.9029	–	–	–	2.259	2.217	2.176
[2], x2 = 0.9447	–	–	–	2.103	2.07	2.04
